Source: patent US7642239B2, “Inhibition of placenta growth factor (PLGF) mediated metastasis and/or angiogenesis” (Center for Molecular Medicine and Immunology, priority 2005, dated 2010)
Ends that are not written are not given here.

What was measured:
[1] = test system: PlGF-mediated angiogenesis in corneal tissues; test: Mouse corneal micropocket angiogenesis assay; assay type: in vivo, C57B16/J mice; details: micropellets, 100 ng PlGF with 1 μM peptide, day 5
Protocol: The ability of PlGF ligands to block PlGF-mediated angiogenesis in corneal tissues in vivo is investigated. Corneal micropockets are created using a modified von Graefe cataract knife in both eyes of male 5-6-wk-old C57B16/J mice. Micropellets comprised of a sustained release formulation of polyglucuronic acid/polylactic acid containing 100 ng of PlGF or PlGF with 1 μM BP-1, BP-2, BP-3 or BP-4 are implanted into each corneal pocket. Eyes are examined by a slit-lamp biomicroscope on day 5 after pellet implantation. Vessel length and neovascularization are measured.

[2] = test system: microvessels in PlGF-containing Matrigel plugs; test: Matrigel basement membrane plug angiogenesis assay; assay type: in vivo, nude mice; details: PlGF-containing implants ± BP1, s.c.; PBS controls 16.2±11.4
Source text: To further investigate the effect of PlGF binding peptides on endothelial cell migration and angiogenesis, Matrigel basement membrane plugs containing PlGF, BP1, BP2, or PBS were implanted s.c. on the flanks of nude mice. The number of interior microvessels in the PBS controls was 16.2±11.4/mm^2. PlGF-only implants contained 28.9±17.2/mm^2 (1.8-fold vs. mock-treated implants), and implants with PlGF and BP1 contained only 12.3±13.0 microvessels/mm^2 (P<0.02).

[3] = biological target: T1, recombinant human Flt-1 fusion protein (Homo sapiens, UniProt P17948); test: Free peptide binding and competition ELISA, Flt-1-coated wells
T1 construct: purchased R & D Systems
T1 sequence (P17948 with tags, fused parts or gaps limits assumed): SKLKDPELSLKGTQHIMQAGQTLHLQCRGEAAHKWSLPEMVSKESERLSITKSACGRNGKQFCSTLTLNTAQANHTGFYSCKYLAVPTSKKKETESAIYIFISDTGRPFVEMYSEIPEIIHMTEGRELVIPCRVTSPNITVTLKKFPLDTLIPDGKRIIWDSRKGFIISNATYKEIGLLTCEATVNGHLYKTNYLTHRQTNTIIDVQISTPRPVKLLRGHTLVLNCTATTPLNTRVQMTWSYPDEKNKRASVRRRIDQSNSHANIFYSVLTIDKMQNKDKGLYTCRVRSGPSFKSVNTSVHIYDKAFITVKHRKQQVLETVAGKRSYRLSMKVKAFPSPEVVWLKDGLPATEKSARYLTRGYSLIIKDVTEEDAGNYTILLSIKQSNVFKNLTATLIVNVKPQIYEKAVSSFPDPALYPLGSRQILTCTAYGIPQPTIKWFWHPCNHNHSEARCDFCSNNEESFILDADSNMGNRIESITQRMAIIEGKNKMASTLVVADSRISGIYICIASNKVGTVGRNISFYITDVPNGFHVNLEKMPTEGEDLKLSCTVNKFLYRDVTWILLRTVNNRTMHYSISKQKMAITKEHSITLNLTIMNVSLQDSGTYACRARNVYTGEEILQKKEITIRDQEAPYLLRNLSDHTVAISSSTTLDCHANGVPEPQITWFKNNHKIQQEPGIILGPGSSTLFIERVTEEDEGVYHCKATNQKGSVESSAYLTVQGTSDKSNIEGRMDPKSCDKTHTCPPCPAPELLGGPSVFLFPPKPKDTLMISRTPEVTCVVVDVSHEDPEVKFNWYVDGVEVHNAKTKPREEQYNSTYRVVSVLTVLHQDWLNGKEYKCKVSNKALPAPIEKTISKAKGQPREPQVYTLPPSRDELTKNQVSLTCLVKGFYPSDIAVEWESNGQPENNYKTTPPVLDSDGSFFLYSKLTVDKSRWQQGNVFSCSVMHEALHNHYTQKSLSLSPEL
Protocol: (§1) Competition assays were done with 2.5 or 25 U/ml heparin (Sigma, St. Louis, Mo.). BP1, 3, 4, and a scrambled version of BP3 (scrBP3) were synthesized with a linker followed by the FLAG epitope ([…] SEQ ID NO:5) at the C-terminus. Thirty minutes after addition of the first reagent, the second reagent was added, followed by another 30 minute incubation. Peptide binding was assessed by probing for the FLAG epitope (Prickett et al., Biotechniques 7:580-9, 1989; Castrucci et al., J. Virol. 66:4647-53, 1992). Absorbance was read at 490 nm.

[4] = test system: MDA-MB-468; test: Wound-healing (motility) assay, MDA-MB-468; assay type: cell-based, human; details: for Relative activity: unit assumed; for Migrating cells: 18-24 h
Protocol: MCF-7, MDA-MB-23 1, and MDA-MB-468 breast tumor cell lines or HECs were seeded onto sterile glass coverslips in Petri dishes or six-well plates. When the cells were 70-80% confluent, the monolayers were scratched with a sterile plastic pipet tip.
Inhibitor concentrations were 50 μM PD98059 (PD98) (mitogen activated protein kinase-kinase 1 [MEK1] inhibitor), 5 nM Wortmannin (phosphatidyl inositol 3 kinase [PI3K] inhibitor), or human recombinant soluble Flt-1 (sFlt-1) (R&D Systems). […] Cells were pre-incubated with PD98 and Wortmannin for 15-30 min before addition of PlGF. Stained (Wright-Giemsa) and mounted coverslips were examined microscopically. Five to ten 100× fields were evaluated by counting the number of cells separated from the wound edges and which appeared to be migrating toward the center of the wound. Results are reported as the average number of cells migrating into the wound/100× field. In some cases data from separate experiments were combined to accommodate inclusion of various treatments in the tables.
Antibody concentration was 1 μg/ml. MEK1 inhibitor, PD98059 (PD98), 50 μM. PI3K inhibitor, Wortmannin, 5 nM. […] Values for antibody and inhibitor treatments were from separate experiments which included all relevant controls. […] UT denotes untreated controls. *P<0.01 (ANOVA) compared to UT; † P<0.02 (ANOVA) compared to PlGF only. ‡ P<0.001 (ANOVA) compared to PlGF only.

[5] = test system: MDA-MB-231 mfp tumor; test: Orthotopic mammary fat pad (mfp) MDA-MB-231 model; assay type: in vivo, SCID mice
Source text: MDA-MB-231, grown in tissue culture, was also implanted in the mammary fat pad (mfp) of SCID mice (3×10^6 cells, 4-5 mice/group). In this model, large pulmonary metastases are less likely to develop (Richert et al., Breast Cancer Res. 7:R819-27, 2005). Peptide treatment was commenced on day 5 after implantation, when small tumors were palpable in all mice (8 treatments). Three days after the final peptide treatment, tumors were removed and weighed. Lungs were harvested and examined microscopically for metastases, as described above.

[6] = test system: MDA-MB-231; test: Matrigel cell invasion assay, MDA-MB-231; assay type: cell-based, human
Protocol: Cellular invasion was determined by addition of 5×10^4cells to growth factor-reduced Matrigel invasion chambers (BD Biosciences Discovery Labware, Bedford, Mass.) (Taylor et al., 2003b; Passaniti et al., 1992, Lab Invest 67, 519-528). Additives to the Matrigel® plugs were pre-incubated together in a total volume of 100 μl PBS at RT for 10 min, after which each additive was added to the Matrigel. Growth factors (2.0 or 0.2 nM), peptide (2 μg/ml), or antibody (1 μg/ml) were added to cells in low serum (0.1% fetal bovine serum [FBS]) medium. Baseline and chemoattractant-based invasion (10% FBS) were included. The number of invading cells was determined by counting the number of cells on the bottom of the invasion chamber membrane after staining at 100× magnification after 24 h (MDA-MB-231) or 48 h (MCF-7, MDA-MB-468). The results of three to five separate experiments are presented.

[7] = biological target: T2, PlGF (Homo sapiens, UniProt P49763); test: Free peptide binding ELISA (FLAG epitope probe), PlGF-coated wells; details: peptide with C-terminal FLAG epitope
T2 construct: purchased R&D Systems
T2 sequence (P49763 19-170 isoform P49763-3 limits assumed): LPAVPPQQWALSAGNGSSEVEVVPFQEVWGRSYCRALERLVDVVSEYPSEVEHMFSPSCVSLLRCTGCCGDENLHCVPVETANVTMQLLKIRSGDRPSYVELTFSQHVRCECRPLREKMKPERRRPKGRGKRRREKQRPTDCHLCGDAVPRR
Protocol: as §1

binding to Flt-1, fold over background [3]: 10 fold | inhibition at 1 µM ([3]; 1 μM BP1 followed by 2.5 U/ml heparin, read-out: inhibition of BP1 binding to Flt-1, BP1 added prior to heparin): 13% | binding to immobilized Flt-1 (A490), BP1 only ([3]; 5 μM BP1 only): 0.527±0.025 | binding to immobilized Flt-1 (A490), with added free Flt-1 ([3]; 5 μM BP1 with added free Flt-1 (2 nM)): 0.327±0.127 | decrease in BP1 binding to Flt-1, heparin added before BP1 ([3]; 2.5 U/ml heparin followed by 1 μM BP1): 64% | effect of PlGF on the binding of BP1 to Flt-1 ([3]; PlGF between 1 and 100 nM): no significant effect | decrease in binding of BP1 to immobilized Flt-1 by free Flt-1 ([3]; free Flt-1 2 nM, 5 μM BP1): 38% | binding to Flt-1 (A490) ([3]; peptide with C-terminal FLAG epitope): 0.886±0.096 | binding to PlGF (A490) [7]: 0.100±0.058
Sequence: SHRYRLAIQLHASDSSSSCV [BP1]
effect on PlGF mediated angiogenesis in corneal tissues [1]: inhibits | interior microvessels [2]: 12.3±13.0 /mm^2 | Relative activity ([4]; PlGF 2 nM ± test agent, relative to PlGF-only value): 97% | Relative activity ([4]; VEGF 2 nM ± test agent, relative to VEGF-only value): 113% | Migrating cells ([4]; growth factor PlGF 2 nM ± test agent (Flt-1 2 nM, peptide 2 μM, antibody 1 μg/ml)): 14.3 ± 8.1 cells/100× field | Migrating cells ([4]; growth factor VEGF 2 nM ± test agent): 15.8 ± 9.5 cells/100× field | tumor weight ([5]; 8 peptide treatments, mock-treated 0.423±0.089): 0.345 ± 0.095 g | reduction in metastases ([5]; lung micrometastases): 82% | micrometastasis counts per mouse ([5]; lung, mock-treated 3.4±1.9): 0.6±0.5 | decrease in tumor weight ([5]; vs mock-treated, did not reach statistical significance): 23% | Average fold-change in the number of cells on the membrane compared to untreated controls ([6]; PlGF 0.2 nM ± peptide 2 μg/ml, 24 h): 1.3 ± 0.1 fold | invading cells, PlGF plus peptide ([6]; PlGF-stimulated invasion with added peptide, 24 h): 15±4.2 cells | decrease in PlGF-stimulated invasion ([6]; added peptide): 50% | Average fold-change in the number of cells on the membrane compared to untreated controls ([6]; peptide 2 μg/ml alone, 24 h): 1.0 ± 0.6 fold
